ChEMBL document CHEMBL4507325 (2021)

Columns and labels:
[1] = target: Aspartate aminotransferase, cytoplasmic (Homo sapiens, UniProt P17174); assay: Aspartate transaminase assay (GOT1)
[2] = target: 5-hydroxytryptamine receptor 1A (Homo sapiens) (UniProt P08908); conditions: Compound concentration 10.0 uM
[3] = target: 5-hydroxytryptamine receptor 1B (Homo sapiens) (UniProt P28222); conditions: Compound concentration 10.0 uM
[4] = target: 5-hydroxytryptamine receptor 1D (Homo sapiens) (UniProt P28221); conditions: Compound concentration 10.0 uM
[5] = target: 5-hydroxytryptamine receptor 1E (Homo sapiens) (UniProt P28566); conditions: Compound concentration 10.0 uM
[6] = target: 5-hydroxytryptamine receptor 2C (Homo sapiens) (UniProt P28335); conditions: Compound concentration 10.0 uM
[7] = target: 5-hydroxytryptamine receptor 5A (Homo sapiens) (UniProt P47898); conditions: Compound concentration 10.0 uM
[8] = target: 5-hydroxytryptamine receptor 7 (Homo sapiens) (UniProt P34969); conditions: Compound concentration 10.0 uM
[9] = target: D(1A) dopamine receptor (Homo sapiens) (UniProt P21728); conditions: Compound concentration 10.0 uM
[10] = target: D(3) dopamine receptor (Homo sapiens) (UniProt P35462); conditions: Compound concentration 10.0 uM
[11] = target: D(4) dopamine receptor (Homo sapiens) (UniProt P21917); conditions: Compound concentration 10.0 uM
[12] = target: Mu-type opioid receptor (Homo sapiens) (UniProt P35372); conditions: Compound concentration 10.0 uM
[13] = target: Histamine H1 receptor (Homo sapiens) (UniProt P35367); conditions: Compound concentration 10.0 uM
[14] = target: Histamine H4 receptor (Homo sapiens) (UniProt Q9H3N8); conditions: Compound concentration 10.0 uM
[15] = target: Alpha-1B adrenergic receptor (Homo sapiens) (UniProt P35368); conditions: Compound concentration 10.0 uM
[16] = target: Beta-1 adrenergic receptor (Homo sapiens) (UniProt P08588); conditions: Compound concentration 10.0 uM
[17] = target: Muscarinic acetylcholine receptor M1 (Homo sapiens) (UniProt P11229); conditions: Compound concentration 10.0 uM
[18] = target: Muscarinic acetylcholine receptor M4 (Homo sapiens) (UniProt P08173); conditions: Compound concentration 10.0 uM
[19] = target: Beta-3 adrenergic receptor (Homo sapiens) (UniProt P13945); conditions: Compound concentration 10.0 uM
[20] = target: Alpha-1D adrenergic receptor (Homo sapiens) (UniProt P25100); conditions: Compound concentration 10.0 uM
[21] = target: Adenosine receptor A2a (Homo sapiens) (UniProt P29274); conditions: Compound concentration 10.0 uM
[22] = target: Alpha-2A adrenergic receptor (Homo sapiens) (UniProt P08913); conditions: Compound concentration 10.0 uM
[23] = target: Beta-1 adrenergic receptor (Homo sapiens) (UniProt P08588); conditions: Compound concentration 10.0 uM; remark: listed apart in the source
[24] = target: Cannabinoid receptor 1 (Homo sapiens) (UniProt P21554); conditions: Compound concentration 10.0 uM
[25] = target: D(1A) dopamine receptor (Homo sapiens) (UniProt P21728); conditions: Compound concentration 10.0 uM; remark: listed apart in the source
[26] = target: D(2) dopamine receptor (Homo sapiens) (UniProt P14416); conditions: Compound concentration 10.0 uM
[27] = target: D(3) dopamine receptor (Homo sapiens) (UniProt P35462); conditions: Compound concentration 10.0 uM; remark: listed apart in the source
[28] = target: Endothelin-1 receptor (Homo sapiens) (UniProt P25101); conditions: Compound concentration 10.0 uM
[29] = target: Estrogen receptor (Homo sapiens) (UniProt P03372); conditions: Compound concentration 10.0 uM
[30] = target: T1, GABA-A receptor; anion channel (Rattus norvegicus) (UniProt O09028+P15431+P18506+P18508+P19969+P20236+P23574+P23576+P28471+P28473+P30191+P62813+P63079+P63138+Q91ZM7+Q9ES14); conditions: Compound concentration 10.0 uM
[31] = target: Glutamate NMDA receptor (Rattus norvegicus) (UniProt P35439+Q00959+Q00960+Q00961+Q62645+Q8VHN2+Q9R1M7); conditions: Compound concentration 10.0 uM
[32] = target: Muscarinic acetylcholine receptor M1 (Homo sapiens) (UniProt P11229); conditions: Compound concentration 10.0 uM; remark: listed apart in the source
[33] = target: Muscarinic acetylcholine receptor M2 (Homo sapiens) (UniProt P08172); conditions: Compound concentration 10.0 uM
[34] = target: 5-hydroxytryptamine receptor 1A (Homo sapiens) (UniProt P08908); conditions: Compound concentration 10.0 uM; remark: listed apart in the source
Rattus norvegicus = organism: Rattus norvegicus; conditions: Compound concentration 10.0 uM
[35] = target: Sodium-dependent noradrenaline transporter (Homo sapiens) (UniProt P23975); conditions: Compound concentration 10.0 uM
[36] = target: Sodium-dependent serotonin transporter (Homo sapiens) (UniProt P31645); conditions: Compound concentration 10.0 uM
[37] = target: Beta-3 adrenergic receptor (Homo sapiens) (UniProt P13945); conditions: Compound concentration 10.0 uM; remark: listed apart in the source
[38] = target: D(2) dopamine receptor (Homo sapiens) (UniProt P14416); conditions: Compound concentration 10.0 uM; remark: listed apart in the source
[39] = target: T1, GABA-A receptor; anion channel (Rattus norvegicus); conditions: Compound concentration 10.0 uM; remark: listed apart in the source
[40] = target: 5-hydroxytryptamine receptor 2C (Homo sapiens) (UniProt P28335); conditions: Compound concentration 10.0 uM; remark: listed apart in the source
[41] = target: 5-hydroxytryptamine receptor 2A (Homo sapiens) (UniProt P28223); conditions: Compound concentration 10.0 uM
[42] = target: Type-1 angiotensin II receptor (Homo sapiens) (UniProt P30556); conditions: Compound concentration 10.0 uM
[43] = target: Cannabinoid receptor 2 (Homo sapiens) (UniProt P34972); conditions: Compound concentration 10.0 uM
[44] = target: Progesterone receptor (Homo sapiens) (UniProt P06401); conditions: Compound concentration 10.0 uM

Sequence of D(1A) dopamine receptor (Homo sapiens) (P21728 whole entry): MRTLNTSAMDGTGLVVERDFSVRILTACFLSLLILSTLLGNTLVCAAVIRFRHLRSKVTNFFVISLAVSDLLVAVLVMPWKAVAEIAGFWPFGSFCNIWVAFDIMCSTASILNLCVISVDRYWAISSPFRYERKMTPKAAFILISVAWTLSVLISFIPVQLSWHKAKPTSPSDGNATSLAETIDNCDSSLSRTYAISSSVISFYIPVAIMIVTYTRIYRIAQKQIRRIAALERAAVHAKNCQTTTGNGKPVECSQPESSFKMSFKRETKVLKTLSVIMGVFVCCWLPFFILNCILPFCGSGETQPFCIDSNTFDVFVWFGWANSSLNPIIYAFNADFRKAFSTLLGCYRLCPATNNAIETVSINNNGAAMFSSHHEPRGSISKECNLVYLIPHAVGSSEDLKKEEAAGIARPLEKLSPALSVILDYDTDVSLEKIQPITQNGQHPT
Sequence of D(2) dopamine receptor (Homo sapiens) (P14416 whole entry): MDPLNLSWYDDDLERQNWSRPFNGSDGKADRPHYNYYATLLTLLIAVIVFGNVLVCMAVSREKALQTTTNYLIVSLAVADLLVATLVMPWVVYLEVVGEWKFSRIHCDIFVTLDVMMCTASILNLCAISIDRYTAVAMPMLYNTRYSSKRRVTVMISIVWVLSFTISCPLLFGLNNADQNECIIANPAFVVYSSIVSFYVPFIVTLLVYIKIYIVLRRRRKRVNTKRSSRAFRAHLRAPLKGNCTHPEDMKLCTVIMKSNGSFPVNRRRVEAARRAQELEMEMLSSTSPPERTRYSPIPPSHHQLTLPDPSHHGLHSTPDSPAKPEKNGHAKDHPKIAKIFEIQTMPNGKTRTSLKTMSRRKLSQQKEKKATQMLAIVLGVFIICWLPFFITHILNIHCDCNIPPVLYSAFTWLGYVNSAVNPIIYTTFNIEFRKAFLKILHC
Sequence of 5-hydroxytryptamine receptor 2C (Homo sapiens) (P28335 whole entry): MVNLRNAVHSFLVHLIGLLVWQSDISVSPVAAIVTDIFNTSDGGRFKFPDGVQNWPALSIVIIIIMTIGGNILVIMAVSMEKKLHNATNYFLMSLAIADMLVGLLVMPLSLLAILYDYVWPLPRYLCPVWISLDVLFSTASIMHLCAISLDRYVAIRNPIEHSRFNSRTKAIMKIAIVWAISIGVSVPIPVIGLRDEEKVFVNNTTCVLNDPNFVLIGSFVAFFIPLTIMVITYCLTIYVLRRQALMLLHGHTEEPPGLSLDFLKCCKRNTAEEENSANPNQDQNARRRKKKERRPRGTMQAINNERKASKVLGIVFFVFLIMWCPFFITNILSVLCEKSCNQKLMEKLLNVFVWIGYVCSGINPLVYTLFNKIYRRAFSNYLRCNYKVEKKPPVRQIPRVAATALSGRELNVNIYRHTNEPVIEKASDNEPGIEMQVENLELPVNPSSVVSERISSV
Sequence of D(3) dopamine receptor (Homo sapiens) (P35462 whole entry): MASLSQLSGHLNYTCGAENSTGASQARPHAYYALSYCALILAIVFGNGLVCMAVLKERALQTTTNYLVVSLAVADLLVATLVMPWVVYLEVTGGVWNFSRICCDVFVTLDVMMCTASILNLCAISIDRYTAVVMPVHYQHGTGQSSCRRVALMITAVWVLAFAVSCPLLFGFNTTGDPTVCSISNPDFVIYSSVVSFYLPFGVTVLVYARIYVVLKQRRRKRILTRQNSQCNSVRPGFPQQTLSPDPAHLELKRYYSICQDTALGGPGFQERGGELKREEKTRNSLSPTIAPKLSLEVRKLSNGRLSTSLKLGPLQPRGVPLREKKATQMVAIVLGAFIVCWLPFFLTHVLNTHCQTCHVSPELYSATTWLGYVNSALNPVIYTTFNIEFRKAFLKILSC
Sequence of Beta-3 adrenergic receptor (Homo sapiens) (P13945 whole entry, looked up): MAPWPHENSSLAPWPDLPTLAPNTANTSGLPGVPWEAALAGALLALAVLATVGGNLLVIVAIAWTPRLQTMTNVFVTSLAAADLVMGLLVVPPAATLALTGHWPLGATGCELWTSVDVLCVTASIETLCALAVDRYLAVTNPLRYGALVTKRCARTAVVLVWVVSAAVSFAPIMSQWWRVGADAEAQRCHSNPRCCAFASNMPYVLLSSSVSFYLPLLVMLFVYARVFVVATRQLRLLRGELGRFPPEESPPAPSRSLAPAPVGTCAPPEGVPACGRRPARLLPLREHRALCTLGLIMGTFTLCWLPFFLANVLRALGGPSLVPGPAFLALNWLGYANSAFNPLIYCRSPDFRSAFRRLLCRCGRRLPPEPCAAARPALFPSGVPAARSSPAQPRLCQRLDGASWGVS
Sequence of 5-hydroxytryptamine receptor 1A (Homo sapiens) (P08908 whole entry): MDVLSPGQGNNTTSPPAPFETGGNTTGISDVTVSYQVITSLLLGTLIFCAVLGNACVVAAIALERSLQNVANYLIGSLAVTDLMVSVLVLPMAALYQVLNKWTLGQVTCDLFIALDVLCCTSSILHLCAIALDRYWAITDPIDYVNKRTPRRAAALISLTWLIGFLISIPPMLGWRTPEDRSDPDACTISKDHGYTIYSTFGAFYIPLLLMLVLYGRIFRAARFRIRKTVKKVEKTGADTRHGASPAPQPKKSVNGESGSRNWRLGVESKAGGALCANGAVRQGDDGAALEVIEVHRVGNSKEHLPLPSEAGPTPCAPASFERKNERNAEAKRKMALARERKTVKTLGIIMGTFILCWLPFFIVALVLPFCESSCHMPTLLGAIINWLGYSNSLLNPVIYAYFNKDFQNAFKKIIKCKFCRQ
Sequence of Beta-1 adrenergic receptor (Homo sapiens) (P08588 whole entry, looked up): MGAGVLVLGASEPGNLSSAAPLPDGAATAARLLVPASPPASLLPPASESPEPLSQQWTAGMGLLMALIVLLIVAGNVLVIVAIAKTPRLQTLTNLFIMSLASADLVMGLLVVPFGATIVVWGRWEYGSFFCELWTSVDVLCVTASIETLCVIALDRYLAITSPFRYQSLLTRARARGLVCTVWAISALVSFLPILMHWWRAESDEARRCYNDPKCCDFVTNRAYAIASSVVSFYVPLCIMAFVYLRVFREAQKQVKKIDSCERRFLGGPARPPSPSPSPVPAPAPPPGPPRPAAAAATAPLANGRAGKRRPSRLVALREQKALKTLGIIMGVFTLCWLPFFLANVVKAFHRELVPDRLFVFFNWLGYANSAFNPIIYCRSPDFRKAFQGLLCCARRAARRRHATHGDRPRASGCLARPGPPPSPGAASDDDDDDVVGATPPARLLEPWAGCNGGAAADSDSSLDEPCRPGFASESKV
Sequence of Muscarinic acetylcholine receptor M1 (Homo sapiens) (P11229 whole entry): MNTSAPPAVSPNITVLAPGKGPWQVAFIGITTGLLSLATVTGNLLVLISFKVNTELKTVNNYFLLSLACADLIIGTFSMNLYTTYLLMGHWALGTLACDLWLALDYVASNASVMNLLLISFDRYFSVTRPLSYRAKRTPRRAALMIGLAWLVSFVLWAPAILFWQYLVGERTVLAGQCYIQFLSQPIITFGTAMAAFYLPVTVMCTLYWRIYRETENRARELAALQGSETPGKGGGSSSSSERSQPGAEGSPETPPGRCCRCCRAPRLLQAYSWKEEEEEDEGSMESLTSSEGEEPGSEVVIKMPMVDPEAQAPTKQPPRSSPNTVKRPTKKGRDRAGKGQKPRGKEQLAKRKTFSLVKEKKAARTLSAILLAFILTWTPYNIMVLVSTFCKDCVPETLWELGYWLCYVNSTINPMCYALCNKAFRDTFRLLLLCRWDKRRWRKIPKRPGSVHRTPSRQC
Sequence of Sodium-dependent noradrenaline transporter (Homo sapiens) (P23975 whole entry): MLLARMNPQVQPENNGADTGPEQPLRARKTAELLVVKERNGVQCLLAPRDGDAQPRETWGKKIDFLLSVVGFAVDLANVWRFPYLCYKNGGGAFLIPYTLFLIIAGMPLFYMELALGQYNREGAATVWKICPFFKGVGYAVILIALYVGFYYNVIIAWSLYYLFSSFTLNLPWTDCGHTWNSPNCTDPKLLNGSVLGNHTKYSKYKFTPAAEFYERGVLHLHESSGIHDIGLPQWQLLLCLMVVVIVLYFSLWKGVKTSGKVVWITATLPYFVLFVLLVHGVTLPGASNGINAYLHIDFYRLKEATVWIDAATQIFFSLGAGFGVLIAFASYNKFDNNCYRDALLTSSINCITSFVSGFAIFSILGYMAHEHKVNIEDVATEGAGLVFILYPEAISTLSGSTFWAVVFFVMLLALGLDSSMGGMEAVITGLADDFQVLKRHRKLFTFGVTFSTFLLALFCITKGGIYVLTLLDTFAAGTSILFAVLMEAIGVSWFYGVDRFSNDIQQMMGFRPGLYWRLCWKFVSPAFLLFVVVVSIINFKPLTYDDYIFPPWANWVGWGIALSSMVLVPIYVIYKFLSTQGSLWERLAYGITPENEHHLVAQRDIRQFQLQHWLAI
Sequence of Alpha-1D adrenergic receptor (Homo sapiens) (P25100 whole entry): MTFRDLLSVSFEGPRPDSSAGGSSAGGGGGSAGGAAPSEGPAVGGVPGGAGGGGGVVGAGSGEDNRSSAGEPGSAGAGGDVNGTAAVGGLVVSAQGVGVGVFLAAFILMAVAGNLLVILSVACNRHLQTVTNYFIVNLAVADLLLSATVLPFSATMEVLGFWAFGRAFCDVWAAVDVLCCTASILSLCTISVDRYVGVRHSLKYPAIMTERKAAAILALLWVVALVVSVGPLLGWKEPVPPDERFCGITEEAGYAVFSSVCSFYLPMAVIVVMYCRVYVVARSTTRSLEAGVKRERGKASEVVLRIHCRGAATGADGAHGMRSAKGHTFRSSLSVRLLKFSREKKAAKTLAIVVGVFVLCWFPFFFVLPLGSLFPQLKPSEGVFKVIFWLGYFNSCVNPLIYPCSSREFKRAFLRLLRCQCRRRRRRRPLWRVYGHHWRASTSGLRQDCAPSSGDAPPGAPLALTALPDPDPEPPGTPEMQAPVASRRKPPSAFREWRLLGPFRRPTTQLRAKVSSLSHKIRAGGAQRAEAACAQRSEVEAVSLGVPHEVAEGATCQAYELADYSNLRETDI

Question: How did the IC50 [1] turn out when `Cc1ccccc1Oc1cc(-n2c(=O)cc(C(F)(F)F)[nH]c2=O)c2ccccc2c1Cl` [BAY-069] was run?
Answer: > 50 µM (not active)

Question: And the inhibition [2]?
Answer: 8.88%

Question: What about the inhibition [3] of the same compound?
Answer: 4.02%

Question: What about the inhibition [4] of the same compound?
Answer: 0.75%

Question: And the inhibition [5]?
Answer: 4.31%

Question: What about the inhibition [6] of the same compound?
Answer: 0.89%

Question: And the inhibition [7]?
Answer: 5.61%

Question: What about the inhibition [8] of the same compound?
Answer: 13.1%

Question: What about the inhibition [9] of the same compound?
Answer: -0.83%

Question: And the inhibition [10]?
Answer: 8.85%

Question: And the inhibition [11]?
Answer: 9.05%

Question: And the inhibition [12]?
Answer: 20.9%

Question: And the inhibition [13]?
Answer: 10.3%

Question: And the inhibition [14]?
Answer: -6.41%

Question: What about the inhibition [15] of the same compound?
Answer: 19.3%

Question: And the inhibition [16]?
Answer: -5.52%

Question: What about the inhibition [17] of the same compound?
Answer: 17.8%

Question: And the inhibition [18]?
Answer: -8.67%

Question: And the inhibition [19]?
Answer: 22.9%

Question: And the inhibition [20]?
Answer: -5.48%

Question: What about the inhibition [21] of the same compound?
Answer: -6%

Question: And the inhibition [22]?
Answer: 2%

Question: And the inhibition [23]?
Answer: 3%

Question: What about the inhibition [24] of the same compound?
Answer: 16%

Question: And the inhibition [25]?
Answer: 7%

Question: What about the inhibition [26] of the same compound?
Answer: -5%

Question: What about the inhibition [27] of the same compound?
Answer: 14%

Question: What about the inhibition [28] of the same compound?
Answer: -2%

Question: What about the inhibition [29] of the same compound?
Answer: 6%

Question: What about the inhibition [30] of the same compound?
Answer: 4%

Question: What about the inhibition [31] of the same compound?
Answer: -2%

Question: And the inhibition [32]?
Answer: 8%

Question: And the inhibition [33]?
Answer: 4%

Question: And the inhibition [34]?
Answer: 9%

Question: What about the inhibition (Rattus norvegicus) of the same compound?
Answer: 46%

Question: What about the inhibition [35] of the same compound?
Answer: 22%

Question: What about the inhibition [36] of the same compound?
Answer: 3%

Question: What about the inhibition [37] of the same compound?
Answer: 15%

Question: And the inhibition [38]?
Answer: -5%

Question: What about the inhibition [39] of the same compound?
Answer: 15%

Question: And the inhibition [40]?
Answer: 3%

Question: And the inhibition [41]?
Answer: 1%

Question: What about the inhibition [42] of the same compound?
Answer: 7%

Question: And the inhibition [43]?
Answer: -5%

Question: What about the inhibition [44] of the same compound?
Answer: -4%
